According to PubChem BioAssay AID1996:
Converted amounts (≈) assume the structure as drawn.

conditions: buffer; pH 7.4; 200.0 µM

**Q.** For Cc1nc(SCC(=O)O)c(C#N)c2c1CCCC2, which solubility kinetic is on record?
**A.** > 39.3 µg/mL

**Q.** Which solubility kinetic does the source give for CNc1nc2c(c(=O)n(C)c(=O)n2C)n1CCCc1ccccc1 here?
**A.** > 49.1 µg/mL

**Q.** For COc1ccc(-c2cc(-c3ccccc3)c(C#N)c(=S)[nH]2)cc1, which solubility kinetic is on record?
**A.** 3.2 µg/mL (≈ 10.1 µM)

**Q.** Which solubility kinetic does the source give for Cc1ccc(S(=O)(=O)/N=C(/c2ccc(F)cc2)N(C)C)cc1 here?
**A.** > 48.1 µg/mL

**Q.** With O=C(O)CN1C(=O)S/C(=C\c2cccnc2)C1=O as the compound, how does the solubility kinetic read?
**A.** > 39.6 µg/mL

**Q.** Which solubility kinetic does the source give for Cc1ccc2oc(C(=O)NCC(c3ccco3)N(C)C)c(C)c2c1 (stereo unspecified) here?
**A.** > 49 µg/mL

**Q.** Which solubility kinetic does the source give for Cc1cc(=O)[nH]c(SCC(=O)Nc2ccccc2[N+](=O)[O-])n1 here?
**A.** > 48 µg/mL

**Q.** Which solubility kinetic does the source give for Cc1ccc(/C=C/C(=O)N2CCCC(C(N)=O)C2)o1 (stereo unspecified) here?
**A.** > 39.3 µg/mL

**Q.** With CC1CCc2c(sc(NC(=O)/C=C/c3cccs3)c2C(=O)O)C1 (stereo unspecified) as the compound, how does the solubility kinetic read?
**A.** > 52.1 µg/mL

**Q.** For Cc1cc(NC(=O)c2cc(-c3cccc(OCC(C)C)c3)nc3ccccc23)no1, which solubility kinetic is on record?
**A.** < 0.3 µg/mL

**Q.** With CCOc1ccc(CNc2ccc(N3CCCC3)cc2)cc1 as the compound, how does the solubility kinetic read?
**A.** 3.1 µg/mL (≈ 10.5 µM)

**Q.** For CN(C)C(CNC(=O)c1ccc(Br)cc1)c1ccco1 (stereo unspecified), which solubility kinetic is on record?
**A.** 30.4 µg/mL (≈ 90.1 µM)

**Q.** With O=C1NC(=Nc2ccccc2)S/C1=C\c1ccccc1 as the compound, how does the solubility kinetic read?
**A.** 0.8 µg/mL (≈ 2.85 µM)

**Q.** With Br.O=[N+]([O-])c1ccc(CSC2=NCCN2)cc1 as the compound, how does the solubility kinetic read?
**A.** 43.2 µg/mL

**Q.** For Cc1ccc(NC(=S)NC2CCCC2)c(C)c1, which solubility kinetic is on record?
**A.** 33.3 µg/mL (≈ 134 µM)

**Q.** Which solubility kinetic does the source give for CCCCCCCOc1ccc(C2CC(=O)N(C)C2=O)cc1 (stereo unspecified) here?
**A.** 3.1 µg/mL (≈ 10.2 µM)

**Q.** With O=C(CCNC(=O)c1ccco1)Nc1ccccc1 as the compound, how does the solubility kinetic read?
**A.** > 38.7 µg/mL

**Q.** For CSCCC1NC(=S)N(Cc2ccccc2)C1=O (stereo unspecified), which solubility kinetic is on record?
**A.** > 42.1 µg/mL

**Q.** For Cc1ccccc1CCN1CCCC(CN(C)CC(C)(C)C)C1 (stereo unspecified), which solubility kinetic is on record?
**A.** 15 µg/mL (≈ 47.4 µM)

**Q.** For COc1cc(C(=O)OC(C)C(=O)Nc2ccc3c(c2)OCCO3)cc(OC)c1OC (stereo unspecified), which solubility kinetic is on record?
**A.** 7.2 µg/mL (≈ 17.2 µM)

**Q.** Which solubility kinetic does the source give for CC(C)(C)C(=O)OC/C(N)=N/OC(=O)c1ccccc1 here?
**A.** > 41.7 µg/mL

**Q.** With Cn1c(C(=O)N[C@@H](C(=O)O)c2ccccc2)cc2cc(Cl)ccc21 as the compound, how does the solubility kinetic read?
**A.** > 51.4 µg/mL

**Q.** Which solubility kinetic does the source give for Cc1cccc(N2CCN(C(=O)NCc3ccc(F)cc3)CC2)c1C here?
**A.** 3.2 µg/mL (≈ 9.37 µM)

**Q.** For CCOc1ccc(/C=C(\C(=O)O)c2ccc(S(=O)(=O)N3CCCCC3)s2)cc1OC, which solubility kinetic is on record?
**A.** > 67.7 µg/mL

**Q.** Which solubility kinetic does the source give for CCOC(=O)C(NC(C)=O)(NC(C)C)C(F)(F)F (stereo unspecified) here?
**A.** 2.2 µg/mL (≈ 8.14 µM)

**Q.** With O=P(C(=NCCO)NO)(N1CCOCC1)N1CCOCC1 as the compound, how does the solubility kinetic read?
**A.** > 48.3 µg/mL

**Q.** For COc1ccc(/C=C2\N=C(C)OC2=O)cc1OC, which solubility kinetic is on record?
**A.** 36.9 µg/mL (≈ 149 µM)

**Q.** Which solubility kinetic does the source give for O=C(/C=C/c1ccc(F)cc1)N1CCc2ccccc2C1 here?
**A.** 12.5 µg/mL (≈ 44.4 µM)

**Q.** Which solubility kinetic does the source give for COc1cccc(CNC(=O)c2csc3c2CCCC3)c1 here?
**A.** 19.5 µg/mL (≈ 64.7 µM)

**Q.** With O=C(COc1ncnc2ccccc12)NC1CCCC1 as the compound, how does the solubility kinetic read?
**A.** > 40.7 µg/mL

**Q.** For COc1ccc(OC)c(N(CC(=O)N2CCCC2)S(C)(=O)=O)c1, which solubility kinetic is on record?
**A.** > 51.4 µg/mL

**Q.** For O=C(O)CCCCCNS(=O)(=O)c1ccc2c(c1)OCCO2, which solubility kinetic is on record?
**A.** > 49.4 µg/mL

**Q.** With COc1nc(NCCO)nc(Nc2cc(Cl)ccc2OC)n1 as the compound, how does the solubility kinetic read?
**A.** 2.5 µg/mL (≈ 7.67 µM)

**Q.** For O=S(=O)(/C=C/c1ccccc1)N1CCOCC1, which solubility kinetic is on record?
**A.** > 38 µg/mL

**Q.** With Cc1ccc(NC(=O)C2CCN(C(=O)c3ccco3)CC2)cc1 as the compound, how does the solubility kinetic read?
**A.** > 46.9 µg/mL

**Q.** For CCOc1ccc(C(=O)NCC(=O)N2CCCCCCC2)cc1, which solubility kinetic is on record?
**A.** > 47.8 µg/mL

**Q.** For Cc1csc(NC(=O)c2ccc(OCC3CCCO3)cc2)n1 (stereo unspecified), which solubility kinetic is on record?
**A.** 21 µg/mL (≈ 66 µM)

**Q.** For CCOC(=O)C1CCCN(C(=O)c2cccc3ccccc23)C1 (stereo unspecified), which solubility kinetic is on record?
**A.** > 46.7 µg/mL

**Q.** With OCC1(CO)COC(c2ccccc2)=N1 as the compound, how does the solubility kinetic read?
**A.** > 31.1 µg/mL

**Q.** Which solubility kinetic does the source give for Cl.O=C(Cc1ccccc1)NCCN1CCCC1 here?
**A.** > 40.3 µg/mL

**Q.** Which solubility kinetic does the source give for Cc1nc2c(C)cccn2c(=O)c1NC(=O)c1ccco1 here?
**A.** > 42.5 µg/mL

**Q.** With COc1ccc(C2(O)C(=O)Nc3ccc(C)cc32)cc1 (stereo unspecified) as the compound, how does the solubility kinetic read?
**A.** > 40.4 µg/mL

**Q.** With CC(CCc1ccccc1)N1CCN(C)CC1 (stereo unspecified) as the compound, how does the solubility kinetic read?
**A.** 33.2 µg/mL (≈ 143 µM)

**Q.** For Cc1cnc(C(=O)N2CCN(S(=O)(=O)c3cccc(Br)c3)CC2)cn1, which solubility kinetic is on record?
**A.** > 63.8 µg/mL

**Q.** With COc1cccc(CNC(=O)COC(=O)C23CC4CC(CC(Cl)(C4)C2)C3)c1 as the compound, how does the solubility kinetic read?
**A.** 21.1 µg/mL (≈ 53.8 µM)

**Q.** With O=[N+]([O-])c1ccc(N2CCN(c3cccc(Cl)c3)CC2)nc1 as the compound, how does the solubility kinetic read?
**A.** 0.4 µg/mL (≈ 1.25 µM)

**Q.** For Cc1cc(=O)n2c(n1)SCOC2, which solubility kinetic is on record?
**A.** > 27.6 µg/mL

**Q.** With CNC(=O)COC(=O)c1cc2c(s1)CCCC2 as the compound, how does the solubility kinetic read?
**A.** > 38 µg/mL

**Q.** For CCN(CC)C(=O)c1csc(Nc2cccc3ccccc23)n1, which solubility kinetic is on record?
**A.** 7.2 µg/mL (≈ 22.1 µM)

**Q.** For CC1CC(C)CN(CC(=O)c2cccs2)C1 (stereo unspecified), which solubility kinetic is on record?
**A.** 30.8 µg/mL (≈ 130 µM)

**Q.** Which solubility kinetic does the source give for Cc1cccc(NC(=O)CSc2ncnc3sc(C)cc23)c1 here?
**A.** 0.7 µg/mL (≈ 2.12 µM)

**Q.** For O=C(COC(=O)c1cc(S(=O)(=O)Nc2ccccc2Cl)ccc1O)Nc1ccc(F)c(F)c1F, which solubility kinetic is on record?
**A.** 10 µg/mL (≈ 19.4 µM)

**Q.** For CCc1ccc2nc(/N=C(\N)NC(=O)c3ccccc3)nc(C)c2c1, which solubility kinetic is on record?
**A.** < 0.1 µg/mL

**Q.** With O=C(CS(=O)(=O)c1ccccc1)Nc1nccs1 as the compound, how does the solubility kinetic read?
**A.** > 42.3 µg/mL

**Q.** With Cc1ccc(S(=O)(=O)N2CCCC2)s1 as the compound, how does the solubility kinetic read?
**A.** 32.3 µg/mL (≈ 140 µM)

**Q.** With Cc1ccc(C)c(C(=O)Nc2ccncc2)c1 as the compound, how does the solubility kinetic read?
**A.** > 33.9 µg/mL

**Q.** For COc1cc(S(=O)(=O)NC2CCCCC2C)ccc1F (stereo unspecified), which solubility kinetic is on record?
**A.** > 45.2 µg/mL

**Q.** Which solubility kinetic does the source give for COc1ccc2ccccc2c1CN(C)Cc1ccccc1.O=C(O)C(=O)O here?
**A.** 53.1 µg/mL

**Q.** For Cc1cc(C)c(C)c(S(=O)(=O)N2CCN(C(=O)c3ccco3)CC2)c1C, which solubility kinetic is on record?
**A.** 4.1 µg/mL (≈ 10.9 µM)

**Q.** For c1ccc(-c2ccc(C(c3ccccc3)n3ccnc3)cc2)cc1 (stereo unspecified), which solubility kinetic is on record?
**A.** 0.7 µg/mL (≈ 2.26 µM)

**Q.** For O=C(c1ccccc1F)N1CCCC(C(=O)N2CCc3ccccc3C2)C1 (stereo unspecified), which solubility kinetic is on record?
**A.** 51.3 µg/mL (≈ 140 µM)
